Several values for one entry are separate records, joined by “and”; a condition that tells them apart may be missing. Equal values may be shown once.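 Each compound was tested at five concentrations against cells in 96-well plates for 48 hours. GI50 = concentration required for 50% inhibition of growth. The concentration for full growth arrest is given as TGI.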
Columns and labels:
Assay in all cases: NCI tumour cell line growth inhibition, 48 h
HCC-2998 colon = test system: HCC-2998 colon
SN12C renal = test system: SN12C renal
NCI-H460 lung = test system: NCI-H460 lung
SF-295 CNS = test system: SF-295 CNS
UO-31 renal = test system: UO-31 renal
COLO 205 colon = test system: COLO 205 colon
NCI-H23 lung = test system: NCI-H23 lung
HS 578T breast = test system: HS 578T breast
K-562 leukemia = test system: K-562 leukemia
RPMI-8226 leukemia = test system: RPMI-8226 leukemia

| Compound | GI50 (HCC-2998 colon) [µM] | TGI (HCC-2998 colon) | GI50 (SN12C renal) [µM] | TGI (SN12C renal) | GI50 (NCI-H460 lung) [µM] | TGI (NCI-H460 lung) | GI50 (SF-295 CNS) [µM] | TGI (SF-295 CNS) [µM] | GI50 (UO-31 renal) [µM] | TGI (UO-31 renal) [µM] | GI50 (COLO 205 colon) [µM] | TGI (COLO 205 colon) | GI50 (NCI-H23 lung) [µM] | TGI (NCI-H23 lung) | GI50 (HS 578T breast) [µM] | TGI (HS 578T breast) [µM] | GI50 (K-562 leukemia) [µM] | TGI (K-562 leukemia) | TGI (RPMI-8226 leukemia) [µM] | GI50 (RPMI-8226 leukemia) [µM] |
| --- | --- | --- | --- | --- | --- | --- | --- | --- | --- | --- | --- | --- | --- | --- | --- | --- | --- | --- | --- | --- |
| Cc1ccc(S(=O)(=O)NC(CCCCN)C(=O)CCl)cc1 (centres undefined) | 37.4 | > 100 µM | 35.6 | 77.2 µM | > 100 | > 100 µM | 27.2 | 77 | > 100 | > 100 | 41.1 | > 100 µM | > 100 | > 100 µM | 40.9 | > 100 | 38.7 | > 100 µM | – | – |
| CCOc1ccccc1Nc1nc(C)c(C(=O)CC(=O)C(=O)Nc2ccccc2)s1 | – | > 100 µM | – | > 100 µM | – | > 100 µM | – | > 100 | – | > 100 | – | > 100 µM | – | > 100 µM | – | – | – | > 100 µM | – | – |
| CCCCCC1C2C(=O)NC(=O)C1C(=O)NC2=O (centres undefined) | – | > 100 µM | – | > 100 µM | – | > 100 µM | – | > 100 | – | > 100 | – | > 100 µM | – | > 100 µM | – | – | – | > 100 µM | > 100 | – |
| Cc1cccc(NC(=O)c2sc3nc4c(cc3c2N)CCC4)c1C | 0.687 | 22.5 µM | 0.888 | > 100 µM | 0.382 | 13.1 µM | 0.245 | 11.1 | 0.615 | > 100 | 0.361 | 1.97 µM | 0.749 | > 100 µM | 0.486 | 16 | – | – | 16.2 | 0.346 |
| Cc1cn2cc(-c3ccncc3)nc2s1 | – | > 100 µM | – | > 100 µM | – | > 100 µM | – | > 100 | – | > 100 | – | > 100 µM | – | > 100 µM | – | – | – | > 100 µM | > 90.2 | – |
| C=C1C(=O)O[C@H]2[C@H]1CC/C(Cn1cc(CNC(=O)c3cc4ccccc4[nH]3)nn1)=C\CC[C@@]1(C)O[C@@H]21 | 14 | 31.5 µM | 1.97 | 4.66 µM | 20.1 | 41 µM | 18.9 | 39 | 10.4 | 22.1 | 2.13 | 4.48 µM | 14.3 | 34.5 µM | 19 | 55.4 | – | – | 9.34 | 3.37 |
| CC(=O)/C=C\C(=O)NNS(=O)(=O)c1ccc(C)cc1 | – | > 100 µM | – | > 100 µM | – | > 100 µM | – | > 100 | – | > 100 | – | > 100 µM | – | > 100 µM | – | – | – | > 100 µM | > 100 | – |
| COc1ccc2nccc(C3OC(=O)N4CCC(=O)CC34)c2c1 (centres undefined) | – | – | – | > 100 µM | – | > 100 µM | – | > 100 | – | > 100 | – | > 100 µM | – | > 100 µM | – | – | – | > 100 µM | > 100 | – |
| O=[N+]([O-])c1ccc(-c2ccc(C3=Nn4c(nnc4-c4ccc(Cl)cc4)SC3)o2)cc1 | – | > 100 µM | – | > 100 µM | – | > 100 µM | – | > 82.1 | – | > 100 | – | > 100 µM | – | > 85.9 µM | – | – | – | > 100 µM | > 100 | – |
| Oc1ccc(-c2nc(-c3ccc4oc5ccc(-c6[nH]c(-c7ccc(O)cc7)nc6-c6ccccc6)cc5c4c3)c(-c3ccccc3)[nH]2)cc1 | 3.12 | 9.69 µM | 3.39 | 27 µM | 3.01 | 9.85 µM | 12.2 | 45.4 | 6.96 | 22.8 | 3.09 | 8.18 µM | 5.2 | 33.7 µM | 3.55 | 68.7 | – | – | > 100 | 3.17 |
| Cc1ccc(S(=O)(=O)c2ccccn2)cc1 | – | > 100 µM | – | > 100 µM | – | > 100 µM | – | > 100 | – | > 100 | – | > 100 µM | – | > 100 µM | – | – | – | > 100 µM | > 100 | – |
| Oc1c(Br)cc(Br)c2cccnc12 | 3.61 | 18.8 µM | 3.23 | 35.2 µM | 2.94 | 10.7 µM | 2.26 | 6.53 | 2.56 | 16.5 | 3.79 | 25 µM | 3.56 | 23.6 µM | 5.73 | > 100 | – | – | 24.8 | 3.45 |
| COc1cc(OC)c(-c2oc3ccccc3c(=O)c2O)c(OC)c1 | – | – | – | > 100 µM | – | > 100 µM | – | > 26.9 | – | > 100 | – | > 100 µM | – | > 100 µM | – | 24.2 | – | > 100 µM | > 100 | – |
| Cc1ccc(SCN2CCCCC2)cc1 (tested in a mixture with another compound) | – | – | – | 31.4 µM | – | – | – | 33.1 | – | 30.2 | – | 16 µM | – | 22.9 µM | – | 37.1 | – | 46.3 µM | 29.5 | – |
| NC(=O)NOCC1NC(=O)NC1=O (centres undefined) | – | – | – | > 100 µM | – | > 100 µM | – | > 100 | – | > 100 | – | > 100 µM | – | > 100 µM | – | > 100 | – | > 100 µM | > 100 | – |
| O=C(Nc1cccc(Cl)c1)c1cc2cc(N=Nc3ccc(Br)cc3)ccc2oc1=O | – | 88.7 µM | – | > 100 µM | – | > 100 µM | – | > 100 | – | > 100 | – | > 100 µM | – | 64.3 µM | – | – | – | > 100 µM | > 100 | – |
| COc1cccc2c1C(=N)c1c(O)c3c(c(O)c1C2=O)C[C@@](O)(C(C)=O)C[C@@H]3OC1CC(N)C(O)C(C)O1 (some centres undefined) | – | 2.48 µM and 3.14 µM and 0.541 µM | – | 1.28 µM and 1.92 µM and 2.23 µM | – | 2.01 µM and 2.11 µM and 0.239 µM | – | – | – | – | – | 2.29 µM and 4.36 µM and 2.42 µM | – | 0.607 µM and 1.62 µM and 1.2 µM | – | – | – | 3.34 µM and 14.8 µM and 6.67 µM | – | – |
| CC1CCCC2(O1)OC1CC(=O)OC1C1=C2C(=O)c2ccccc2C1=O (centres undefined) | – | 8.7 µM | – | 4.77 µM | – | 67.2 µM | – | 32 | – | 5.41 | – | 5.19 µM | – | 19.7 µM | – | – | – | – | 4.27 | – |
| CCCC1C2=C(C(=O)OC2=O)C2C(CC)CC3=C(C(=O)OC3=O)C12 (centres undefined) | – | – | – | > 100 µM | – | > 100 µM | – | > 100 | – | > 100 | – | > 100 µM | – | > 100 µM | – | > 100 | – | > 100 µM | > 100 | – |

Source: PubChem BioAssay (NCI)
